Measured values: patent EP0374249A1, “METHOD OF STERILIZING PLANT POLLEN” (VSESOJUZNY NAUCHNO-ISSLEDOVATELSKY INST. SELSKOKHOZYAISTV. …, priority 1988, dated 1989)

Legend:
[1] = tested on: diploidem Roggen Sorte Chulpan; test: Field test of pollen sterilisation, diploid rye Chulpan; format: in vivo; conditions: 1% aqueous emulsion, 8 kg/ha; for Prozentsatz der Sterilität / Anzahl von Körnern der Ähre bei freier Bestäubung / Anzahl von Körnern der Ähre im Isolator: period V of organogenesis; for Anzahl von Körnern der Ähre bei freier Bestäubung: free pollination; for Anzahl von Körnern der Ähre im Isolator: isolated ears; for Prozentsatz des Ansetzens von Körnern bei freier Bestäubung: period V, non-isolated control ears = 100%
From the text: (§7) Mit dem Ahrenschiebe verwirklicht man die Isolierung von Hauptähren und anderen Stockwerken in Pergamentbeuteln. […] Bei Roggen schliesst man je Ähre 5 bis 7 verschiedene nebeneinander befindliche Pflanzen unter einen gemeinsamen Isolator ein. […] Der Sterilitätsprozentsatz (X) für Weizen, Roggen, Tritikale und Hirse wird nach folgender Formel [formula] ermittelt.
Die Emulsion enthält 0,01 Masse% Tetranydrofuran und 0,1 Masse% Kalziumalkylbenzolsulfonat mit 12 bis 14 Kohlenstoffatomen. Der Verbrauch an Präparat beträgt 8 kg/ha. Als Kontrolle dienen Pflanzen, behandelt mit einem Verdünner ohne Sterilisationsmittel.

[2] = tested on: diploidem Roggen Sorte Talovskaya 12; test: Field test of pollen sterilisation, diploid rye Talovskaya 12; format: in vivo; conditions: 1% aqueous emulsion, 6 kg/ha; for Prozentsatz der Sterilität / Anzahl von Körnern der Ähre bei freier Bestäubung / Anzahl von Körnern der Ähre im Isolator: period V of organogenesis; for Anzahl von Körnern der Ähre bei freier Bestäubung: free pollination; for Anzahl von Körnern der Ähre im Isolator: isolated ears; for Prozentsatz des Ansetzens von Körnern bei freier Bestäubung: period V, non-isolated control ears = 100%
From the text: as §7
Pflanzen von diploidem Roggen Sorte Talovskaya 12 werden in der V. Periode der Organogenese (nach Kupermann) mit einer 1%igen wässrigen Emulsion von N-(2-Di- methylaminoäthyl)-maleaminsäure, N-(3-Dimethylaminopropyl)-maleaminsäure, N-Äthylmaleaminsäure, N-(2-Hydroxyäthyl)maleaminsäure, N-Karbamoylmaleaminsäure behandelt. Die Emulsion enthält 0,01 Masse% Dodezylsulfat und 0,1 Masse% Kalziumalkylbenzolsulfonat mit 12 bis _14 Kohlenstoffatomen. Der Verbrauch an Präparat beträgt 6 kg/ha. Als Kontrolle dienen Pflanzen, behandelt mit einem Verdünner ohne Sterilisationsmittel.

[3] = tested on: Hirse Sorte Mironovskoe 94; test: Field test of pollen sterilisation, millet Mironovskoe 94; format: in vivo; conditions: 1% aqueous emulsion, 8 kg/ha; for Prozentsatz der Sterilität / Anzahl von Körnern der Rispe bei freier Bestäubung / Anzahl von Körnern der Rispe im Isolator: period V of organogenesis; for Anzahl von Körnern der Rispe bei freier Bestäubung: free pollination; for Anzahl von Körnern der Rispe im Isolator: isolated panicles; for Prozentsatz des Ansetzens von Körnern bei freier Bestäubung: period V, non-isolated control = 100%
From the text: (§1) Die gametozide Aktivität der erfindungsgemässen Sterilisationsmittel war im Feldversuch in verschiedenen Bodenklimatischen Zonen mit Teilstücken von 10 m^2 Grösse in drei- bis viermaliger Wiederholung nachgewiesen. Jedes Sterilisationsmittel wurde mindestens 5 Jahre lang geprüft.
(§2) Die Entwicklung der Perioden der Organogenese wird zytologischüberwacht. Die Behandlung von Pflanzen mit dem Sterilisationsmittel erfolgt am Anfang der fünften Periode der Organogenese nach Kupermann.
(§3) Mit dem Ahrenschiebe verwirklicht man die Isolierung von Hauptähren und anderen Stockwerken in Pergamentbeuteln. Bei Weizen und Tritikale werden Einzelisolatoren verwendet. Bei Roggen schliesst man je Ähre 5 bis 7 verschiedene nebeneinander befindliche Pflanzen unter einen gemeinsamen Isolator ein. Bei Hirse wird jede Rispe getrennt isoliert. Der Sterilitätsprozentsatz (X) für Weizen, Roggen, Tritikale und Hirse wird nach folgender Formel [formula] ermittelt.
(§4) Die Kornzahl in nicht isolierten ähren von Kontrollpflanzen wird bedingt für 100% Ansetzen bei freier Bestäubung angenommen.
(§5) Um zuverlässige Angaben zu erhalten, verwendet man 20 bis 25 Isolatoren jeder Wiederholung für Weisen und Tritikale, 10 bis 15 Gruppenisolatoren jeder Wiederholung für Roggen und Hirse.
Pflanzen der Hirse Sorte Mironovskoe 94 werden in der V. Periode der Organogenese (nach Kupermann) mit einer 1%igen wässrigen Emulsion von N-(2-Dimethylaminoäthyl)maleaminsäure, N-(3-Dimethylaminopropyl)maleaminsäure, N-Äthylmaleaminsäure, N-(2-Hydroxyäthyl)maleaminsäure, N-Karbamoylmaleaminsäure behandelt. Die Emulsion enthält 0,01 Masse% Dimethylaulfoxid und 0,1 Masse% Kalziumalkylbenzolsulfonat mit 12 bis 14 Kohlenstoffatomen. Der Verbrauch an Präparat beträgt 8 kg/ha. Als Kontrolle dienen Pflanzen, behandelt mit einem Verdünner ohne Sterilisationsmittel. Die Prüfergebnisse sind in der Tabelle 12 dargestellt. […] Periode der Organogenese erhalten.

[4] = Toxicity test in animals (LD50); conditions: in vivo; animal test, per kg animal weight; species and route not given
From the text: Alle erfindungsgemässen N-substituierten Maleaminsäuren, welche als Sterilisationsmittel zur Verwendung kommen, waren auf die Toxizität im Tierversuch geprüft. Die Prüfergebnisse haben ergeben, dass die angegebenen Verbindungen von schwacher oder mittlerer Toxizität sind.

[5] = tested on: Sommerweizens Sorte Botanicheskaya 4; test: Field test of pollen sterilisation, spring wheat Botanicheskaya 4; format: in vivo, Sommerweizen; conditions: 1% aqueous emulsion, 6 kg/ha; for Prozentsatz der Sterilität / Anzahl von Körnern der Ähre bei freier Bestäubung / Anzahl von Körnern der Ähre im Isolator: period V of organogenesis; for Anzahl von Körnern der Ähre bei freier Bestäubung: free pollination; for Anzahl von Körnern der Ähre im Isolator: isolated ears; for Prozentsatz des Ansetzens von Körnern bei freier Bestäubung: period V, non-isolated control ears = 100%
From the text: Pflanzen des Sommerweizens Sorte Botanicheskaya 4 werden in der V. Periode der Organogenese (nach Kupermann) mit einer 1%igen Wässrigen Emulsion von N-(2-Dimethyl-aminoäthyl)-maleaminsäure, N-(3-Dimethylaminopropyl)-maleaminsäure, N-Äthylmaleaminsäure, N-(2-Hydroxyäthyl)-maleaminsäure bzw. N-Karbamoylmaleaminsäure behandelt. Die Emulsion enthält 0,5 Masse% Kalziumalkylbenzolsulfonat mit 12 bis 14 Kohlenstoffatomen und 0,01 Masse% Dimethylsulfoxid als Adjuvans. Der Verbrauch an Präparat beträgt 6 kg/ha. Als Kontrolle dienen Pflanzen, behandelt mit einem Verdünner ohne Sterilisationsmittel.

Tritikale Sorte Prag 109 = test: Field test of pollen sterilisation, triticale Prag 109; format: in vivo; conditions: 2% aqueous emulsion, 12 kg/ha; for Prozentsatz der Sterilität / Anzahl von Körnern der Ähre bei freier Bestäubung / Anzahl von Körnern der Ähre im Isolator: period V of organogenesis; for Anzahl von Körnern der Ähre bei freier Bestäubung: free pollination; for Anzahl von Körnern der Ähre im Isolator: isolated ears; for Prozentsatz des Ansetzens von Körnern bei freier Bestäubung: period V, non-isolated control ears = 100%
From the text: (§6) Jedes Sterilisationsmittel wurde mindestens 5 Jahre lang geprüft.
as §2, §3, §4, §5
V.Periode der Organogenese (nach Kupermann) mit einer 2%igen wässrigen Emulsion von N-(3-Dimethylaminopropyl) maleaminsäure, N-Karbamoylmaleaminsäure behandelt. Die Emulsion enthält 0,01 Masse% Tetrahydrofuran […] und 0,1 Masse% Kalziumalkylbenzolsulfonat mit 12 bis 14 Kohlensotffatomen. Der Verbrauch an Präparat beträgt 12 kg/ha. Als Kontrolle dienen Pflanzen, behandelt mit einem Verdünner ohne Sterilisationsmittel.

[6] = tested on: Winterweizens Sorte Bezostaya 1; test: Field test of pollen sterilisation, winter wheat Bezostaya 1; format: in vivo, Winterweizen; conditions: 2% aqueous emulsion, 16 kg/ha; for Prozentsatz der Sterilität / Anzahl von Körnern der Ähre bei freier Bestäubung / Anzahl von Körnern der Ähre im Isolator: period V of organogenesis; for Anzahl von Körnern der Ähre bei freier Bestäubung: free pollination; for Anzahl von Körnern der Ähre im Isolator: isolated ears; for Prozentsatz des Ansetzens von Körnern bei breier Bestäubung: period V, non-isolated control ears = 100%
From the text: Pflanzen des Winterweizens Sorte Bezostaya 1 werden in der V. Periode der Organogenese durch Zerstäubung einer 2%igen wässrigen Emulsion von N-(2-Dimethylaminoäthyl)-maleaminsäure, N-(3-Dimethylaminopropyl)-maleaminsäure, N-Äthylmaleaminsäure, N-(2-Hydroxyäthyl)-maleaminsäure, N-Karbamoylmaleaminsäure mit Hilfe deiner Rückspritze behandelt. Die Emulsion enthält 0,1 Masse% Kalziumalkylbenzolsulfonat mit 12 bis 14 Kohlenstoffatomen. Als Adjuvans führt man in die Emulsion 0,01 Masse% Tetrahydrofuran ein.
Der Verbrauch an Präparat beträgt 16 kg/ha. Als Kontrolle dienen Pflanzen, behandelt mit einem Verdünner ohne Sterilisationsmitteln.

[7] = tested on: tetraploidem Roggen Sorte Ukrainskaya tetra; test: Field test of pollen sterilisation, tetraploid rye Ukrainskaya tetra; format: in vivo; conditions: 1% aqueous emulsion, 6 kg/ha; for Prozentsatz der Sterilität / Anzahl von Körnern der Ähre bei freier Bestäubung / Anzahl von Körnern der Ähre im Isolator: period V of organogenesis; for Anzahl von Körnern der Ähre bei freier Bestäubung: free pollination; for Anzahl von Körnern der Ähre im Isolator: isolated ears; for Prozentsatz des Ansetzens von Körnern bei freier Bestäubung: period V, non-isolated control ears = 100%
From the text: as §6, §2, §3, §4, §5
Pflanzen von tetraploidem Roggen Sorte Ukrainskaya tetra werden in der V. Periode der Organogenese (nach Kupermann) mit einer 1%igen wässrigen Emulsion von N-(2-Dimethylaminoäthyl)maleaminsäure, N-(3-Dimethyl-aminopropu)maleaminsäure bzw. N-Karbamoylmaleaminsäure behandelt. Die Emulsion enthält 0,1 Masse% Kaliumalkylbenzolsulfonat mit 12 bis 14 Kohlenstoffatomen und 0,01 Masse% Dodezylsulfat. Der Verbrauch an Präparat beträgt 6 kg/ha. Als Kontrolle dienen Pflanzen, behandelt mit einem Verdünner ohne Sterilisationsmittel. Die Prüfergebnisse sind in der Tabelle 6 dargestellt.

[8] = tested on: Sommerweizens Sorte Moskovskaya 35; test: Field test of pollen sterilisation, spring wheat Moskovskaya 35; format: in vivo, Sommerweizen; conditions: 1% aqueous emulsion, 10 kg/ha; for Prozentsatz der Sterilität / Anzahl von Körnern der Ähre bei freier Bestäubung / Anzahl von Körnern der Ähre im Isolator: period V of organogenesis; for Anzahl von Körnern der Ähre bei freier Bestäubung: free pollination; for Anzahl von Körnern der Ähre im Isolator: isolated ears; for Prozentsatz des Ansetzens von Körnern bei freier Bestäubung: period V, non-isolated control ears = 100%
From the text: Pflanzen des Sommerweizens Sorte Moskovskaya 35 werden in V. Periode der Organogenese (nach Kupermann) mit einer 1%igen wässrigen Emulsion von N-(2-Dimethyl-aminoäthyl)-maleaminsäure, N-(3-Dimethylaminopropyl)-maleaminsäure, N-Äthylmaleaminsäure, N-(2-Hydroxyäthyl) maleaminsäure bzw. N-Karbamoylmaleaminsäure behandelt. Die Emulsion enthält 0,5 Masse% Kalziumalkylbenzolsulfonat mit 12 bis 14 Kohlenstoffatomen als Emulgierungsmittel und 0,01 Masse% Dimethylformamid als Adjuvans. Der Verbrauch an Präparat beträgt 10 kg/ha. Als Kontrolle dienen Pflanzen, behandelt mit einem Verdünner ohne Sterilisationsmittel.

[9] = tested on: Winterweizens Sorte Mir.onovskaya 808; test: Field test of pollen sterilisation (gametocidal activity), winter wheat Mironovskaya 808; format: in vivo, Winterweizen; conditions: 2% aqueous emulsion, 20 kg/ha; for Prozentsatz der Sterilität / Anzahl von Körnern der Ähre bei freier Bestäubung / Anzahl von Körnern der Ähre im Isolator: period V of organogenesis; for Anzahl von Körnern der Ähre bei freier Bestäubung: free pollination; for Anzahl von Körnern der Ähre im Isolator: isolated ears; for Prozentsatz des Ansetzens von Körnern bei freier Bestäubung: period V, non-isolated control ears = 100%
From the text: Als Emulgierungsmittel wird 0,1 Masse% Kalziumalkylbenzolsulfonat mit 12 bis 14 Kohlenstoffatomen hinzugefügt. Als Adjuvans fährt man in die Emulsion 0,01 Masse% Dimethylsulfoxid ein. Der Verbrauch an Präparat beträgt 20 kg/ha. Als Kontrolle dienen Pflanzen, behandelt mit einem Verdünner ohne Sterilisationsmittel.

[10] = tested on: diploidem Roggen Sorte Voskhod 2; test: Field test of pollen sterilisation, diploid rye Voskhod 2; format: in vivo; conditions: 1% aqueous emulsion, 10 kg/ha; for Prozentsatz der Sterilität / Anzahl von Körnern der Ähre bei freier Bestäubung / Anzahl von Körnern der Ähre im Isolator: period V of organogenesis; for Anzahl von Körnern der Ähre bei freier Bestäubung: free pollination; for Anzahl von Körnern der Ähre im Isolator: isolated ears; for Prozentsatz des Ansetzens von Körnern bei freier Bestäubung: period V, non-isolated control ears = 100%
From the text: Die Emulsion enthält 0,1 Masse% Kalziumalkylbenzolsulfonat und 0,01 Masse% Dimethylformamid. Der Verbrauch an Präparat beträgt 10 kg/ha. Als Kontrolle dienen Pflanzen, behandelt mit einem Lösungsmittel ohne Sterilisationsmittel.

[11] = tested on: tetraploidem Roggen Sorte Belta; test: Field test of pollen sterilisation, tetraploid rye Belta; format: in vivo; conditions: 1% aqueous emulsion, 10 kg/ha; for Prozentsatz der Sterilität / Anzahl von Körnern der Ähre bei freier Bestäubung / Anzahl von Körnern der Ähre im Isolator: period V of organogenesis; for Anzahl von Körnern der Ähre bei freier Bestäubung: free pollination; for Anzahl von Körnern der Ähre im Isolator: isolated ears; for Prozentsatz des Ansetzens von Körnern bei freier Bestäubung: period V, non-isolated control ears = 100%
From the text: as §1, §2, §3, §4, §5
Pflanzen von tetraploidem Roggen Sorte Belta werden in der V. Periode der Organogenese (nach Kupermann) mit einer 1%igen wässrigen Emulsion von N-(2-Dimethylamino- .äthyl)maleaminsäure, N-(3-Dimethylaminopropyl)maleaminsäure, N-Äthylmaleaminsäure, N-(2-Hydroxyäthyl)maleaminsäure bzw. Karbamoylmaleaminsäure behandelt. Die Emulsion enthält 0,5 Masse% Kalziumalkylbenzolsulfonat mit 12 bis 14 Kohlenstoffatomen und 0,01 Masso% Tetrahydrofuran. Der Verbrauch an Präparat beträgt 10 kg/ha. Die Prüfergebnisse sind in der Tabelle 5 dargestellt. […] Periode der Organogenese erhalten.

CN(C)CCCNC(=O)/C=C\C(=O)O [Beispiel 2, N-(3-Dimethylaminopropyl)-maleaminsäure]
Prozentsatz der Sterilität [1]: 100,0%
Anzahl von Körnern der Ähre bei freier Bestäubung [1]: 51,6
Anzahl von Körnern der Ähre im Isolator [1]: 0,0
Prozentsatz des Ansetzens von Körnern bei freier Bestäubung [1]: 90,8%
Prozentsatz der Sterilität [2]: 100,0%
Anzahl von Körnern der Ähre bei freier Bestäubung [2]: 48,0
Anzahl von Körnern der Ähre im Isolator [2]: 0,0
Prozentsatz des Ansetzens von Körnern bei freier Bestäubung [2]: 85,4%
Prozentsatz der Sterilität [3]: 100,0%
Anzahl von Körnern der Rispe bei freier Bestäubung [3]: 214,5
Anzahl von Körnern der Rispe im Isolator [3]: 0,0
Prozentsatz des Ansetzens von Körnern bei freier Bestäubung [3]: 94,4%
LD50 [4]: > 10000 mg/kg
Prozentsatz der Sterilität [5]: 99,7%
Anzahl von Körnern der Ähre bei freier Bestäubung [5]: 27,7
Anzahl von Körnern der Ähre im Isolator [5]: 0,1
Prozentsatz des Ansetzens von Körnern bei freier Bestäubung [5]: 92,0%
Prozentsatz der Sterilität (Tritikale Sorte Prag 109): 100,0%
Anzahl von Körnern der Ähre bei freier Bestäubung (Tritikale Sorte Prag 109): 40,3
Anzahl von Körnern der Ähre im Isolator (Tritikale Sorte Prag 109): 0,0
Prozentsatz des Ansetzens von Körnern bei freier Bestäubung (Tritikale Sorte Prag 109): 88,0%
Prozentsatz der Sterilität [6]: 100,0%
Anzahl von Körnern der Ähre bei freier Bestäubung [6]: 40,2
Anzahl von Körnern der Ähre im Isolator [6]: 0,0
Prozentsatz des Ansetzens von Körnern bei breier Bestäubung [6]: 93,7%
Prozentsatz der Sterilität [7]: 100,0%
Anzahl von Körnern der Ähre bei freier Bestäubung [7]: 42,6
Anzahl von Körnern der Ähre im Isolator [7]: 0,0
Prozentsatz des Ansetzens von Körnern bei freier Bestäubung [7]: 95,1%
Prozentsatz der Sterilität [8]: 98,9%
Anzahl von Körnern der Ähre bei freier Bestäubung [8]: 27,0
Anzahl von Körnern der Ähre im Isolator [8]: 0,3
Prozentsatz des Ansetzens von Körnern bei freier Bestäubung [8]: 98,2%
Prozentsatz der Sterilität [9]: 99,8%
Anzahl von Körnern der Ähre bei freier Bestäubung [9]: 41,5
Anzahl von Körnern der Ähre im Isolator [9]: 0,1
Prozentsatz des Ansetzens von Körnern bei freier Bestäubung [9]: 97,4%
Prozentsatz der Sterilität [10]: 100,0%
Anzahl von Körnern der Ähre bei freier Bestäubung [10]: 48,0
Anzahl von Körnern der Ähre im Isolator [10]: 0,0
Prozentsatz des Ansetzens von Körnern bei freier Bestäubung [10]: 87,0%
Prozentsatz der Sterilität [11]: 100,0%
Anzahl von Körnern der Ähre bei freier Bestäubung [11]: 47,7
Anzahl von Körnern der Ähre im Isolator [11]: 0,0
Prozentsatz des Ansetzens von Körnern bei freier Bestäubung [11]: 87,0%

NC(=O)NC(=O)/C=C\C(=O)O [Beispiel 5, N-Karbamoylmaleaminsäure]
Prozentsatz der Sterilität [1]: 100,0%
Anzahl von Körnern der Ähre bei freier Bestäubung [1]: 48,7
Anzahl von Körnern der Ähre im Isolator [1]: 0,0
Prozentsatz des Ansetzens von Körnern bei freier Bestäubung [1]: 85,7%
Prozentsatz der Sterilität [2]: 100,0%
Anzahl von Körnern der Ähre bei freier Bestäubung [2]: 48,9
Anzahl von Körnern der Ähre im Isolator [2]: 0,0
Prozentsatz des Ansetzens von Körnern bei freier Bestäubung [2]: 87,0%
Prozentsatz der Sterilität [3]: 100,0%
Anzahl von Körnern der Rispe bei freier Bestäubung [3]: 198,2
Anzahl von Körnern der Rispe im Isolator [3]: 0,0
Prozentsatz des Ansetzens von Körnern bei freier Bestäubung [3]: 87,2%
LD50 [4]: 2000 mg/kg
Prozentsatz der Sterilität [5]: 100,0%
Anzahl von Körnern der Ähre bei freier Bestäubung [5]: 27,1
Anzahl von Körnern der Ähre im Isolator [5]: 0,0
Prozentsatz des Ansetzens von Körnern bei freier Bestäubung [5]: 90,0%
Prozentsatz der Sterilität (Tritikale Sorte Prag 109): 100,0%
Anzahl von Körnern der Ähre bei freier Bestäubung (Tritikale Sorte Prag 109): 39,6
Anzahl von Körnern der Ähre im Isolator (Tritikale Sorte Prag 109): 0,0
Prozentsatz des Ansetzens von Körnern bei freier Bestäubung (Tritikale Sorte Prag 109): 86,5%
Prozentsatz der Sterilität [6]: 97,8%
Anzahl von Körnern der Ähre bei freier Bestäubung [6]: 41,8
Anzahl von Körnern der Ähre im Isolator [6]: 0,7
Prozentsatz des Ansetzens von Körnern bei breier Bestäubung [6]: 97,4%
Prozentsatz der Sterilität [7]: 99,4%
Anzahl von Körnern der Ähre bei freier Bestäubung [7]: 44,0
Anzahl von Körnern der Ähre im Isolator [7]: 0,2
Prozentsatz des Ansetzens von Körnern bei freier Bestäubung [7]: 98,2%
Prozentsatz der Sterilität [8]: 100,0%
Anzahl von Körnern der Ähre bei freier Bestäubung [8]: 27,2
Anzahl von Körnern der Ähre im Isolator [8]: 0,0
Prozentsatz des Ansetzens von Körnern bei freier Bestäubung [8]: 98,9%
Prozentsatz der Sterilität [9]: 100,0%
Anzahl von Körnern der Ähre bei freier Bestäubung [9]: 40,0
Anzahl von Körnern der Ähre im Isolator [9]: 0,0
Prozentsatz des Ansetzens von Körnern bei freier Bestäubung [9]: 93,9%
Prozentsatz der Sterilität [10]: 98,2%
Anzahl von Körnern der Ähre bei freier Bestäubung [10]: 51,7
Anzahl von Körnern der Ähre im Isolator [10]: 0,9
Prozentsatz des Ansetzens von Körnern bei freier Bestäubung [10]: 93,7%
Prozentsatz der Sterilität [11]: 100,0%
Anzahl von Körnern der Ähre bei freier Bestäubung [11]: 47,8
Anzahl von Körnern der Ähre im Isolator [11]: 0,0
Prozentsatz des Ansetzens von Körnern bei freier Bestäubung [11]: 87,2%
